# Laboratory results as given in patent US20230331679A1, “NAPHTHALENE MONOIMIDE COMPOUNDS AND METHODS THEREOF” (JAWAHARLAL NEHRU CENTRE FOR ADVANCED SCIENTIFIC RESEARCH, priority 2020, published 2023).
# Key:
# α-Syn = α-Syn (Homo sapiens, UniProt P37840); experiment: ThT binding assay, α-Syn aggregation inhibition; assay type: biochemical
# Description: Parkinson’s disease (PD) is a neuronal disorder, mainly affects the motor system. α-Syn is a presynaptic neuronal protein that is linked neuropathologically to PD plays a vital role in the pathogenesis in a number of ways. Self-aggregation of α-Syn to form fibrillar aggregates and these toxic species mediate disruption of cellular homeostasis and cause neuronal death. These toxic aggregates affect various intracellular targets, especially synaptic function. In this context, NMI compounds of the present disclosure were used to study the possible modulation of α-Syn aggregation. The effect of NMI compounds (TGR63 and TGR64) on α-syn (100 µM) aggregation inhibition was studied through ThT binding assay. Experiments were performed at stoichiometric ratios (α-Syn:inhibitor) of 1:1, 1:2, and 1:5 with the fixed concentration of α-Syn at 100 µM.
# [1] = Octanol/water partition coefficient (LogP); assay type: physicochemical
# Method: Pharmacokinetics of TGR63 in wild-type (WT) mice was performed to assess its in vivo efficacy. The lethal dose 50 (LD50) of TGR63 was determined in WT mice through intraperitoneal (IP) injection following the Organisation for Economic Cooperation and Development (OECD) guidelines. […] FIG. 7A illustrates the calculation of lethal dose 50% (LD50) of TGR63 through intraperitoneal administration and is represented as table of experimental details and the final observation was done on 14th day. FIG. 7B illustrates the mortality (%) plotted against TGR63 concentration and calculation of LD50. Twenty-five WT mice were segregated in five different groups (G1-5, N= 5 per group) and administered with varying doses of TGR63 (1.7, 5.5, 17.5 56.0 and 179.0 mg/kg body weight, respectively) through IP injection and their survival was monitored for 14 days. The serum stability and blood-brain barrier (BBB) crossing ability of TGR63 were assessed through matrix-assisted laser desorption ionization (MALDI) mass spectrometry analysis of blood and brain samples of vehicle and TGR63 treated mice. TGR63 and vehicle were administrated in WT mice and sacrificed after 1 and 24 h to collect the blood for MALDI mass analysis FIG. 8 depicts the MALDI mass analysis of vehicle (FIG. 8A) and TGR63 treated mice blood serum after 1 h (FIG. 8B) and 24 h (FIG. 8C) of administration. The presence of TGR63 in blood was confirmed from the mass analysis even after 24 h. […] TGR63 was incubated in PBS (10 mM, pH= 7.4) and blood serum in WT mice for different time intervals (0.5, 1, 2 and 6 h) at 37° C. to evaluate the serum stability under in vitro conditions. […] FIG. 9 depicts the Serum stability of TGR63 under in vitro conditions. TGR63 was incubated in PBS (10 mM, pH= 7.4) and blood serum (WT mouse) for different time (0.5, 1, 2 and 6 h) at 37° C. […] The partition coefficient (P), a valuable physical property was calculated to predict the BBB permeability. […] FIG. 10 depicts the calculation of LogP. […] The calculated positive logP value predicts the possible BBB crossing ability for TGR63. […]
# Aβ42 fibrils = biological target: T1, Aβ42 fibrils (Homo sapiens, UniProt P05067); experiment: TEM visualization of Aβ42 aggregation species; assay type: biochemical; conditions: 10 µM Aβ42, 50 µM TGR63, 48 h
# T1 construct: commercially available β-amyloid peptide (1-42), human; purchased marck (so in the source) PP69-.025 mg
# Method: To visualize the amyloid fibrils, the 10 µM of Aβ42 peptides were incubated alone, and in combination with 50 µM TGR63 for 48 h and spotted on mica surface and TEM grid to acquire the TEM images. FIG. 4(a) and FIG. 4(b) show the TEM images of Aβ42 aggregation species in the absence and presence of TGR63 respectively.
# T1 sequence (P05067 672-713 limits assumed): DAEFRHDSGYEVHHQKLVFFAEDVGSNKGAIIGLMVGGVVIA
smiles,measurement,setting,value
"CN(C)c1ccc(C#Cc2ccc3c4c(cccc24)C(=O)N(CC[N+](C)(C)C)C3=O)cc1 [TGR63, 2-(6-((4-(dimethylamino)phenyl)ethynyl)-1,3-dioxo-1H-benzo[de]isoquinolin-2(3H)-yl)-N,N,N-trimethylethan-1-aminium]",decrease in the formation of α-Syn aggregates,"α-Syn; α-Syn:inhibitor 1:1, α-Syn 100 µM",~ 54%
same,α-Syn aggregation decreased to,"α-Syn; α-Syn:inhibitor 1:2, α-Syn 100 µM",65%
same,α-Syn aggregation decreased to,"α-Syn; α-Syn:inhibitor 1:5, α-Syn 100 µM",93%
same,logP,[1]; calculated from octanol and water layer concentrations,0.1
same,concentration in octanol layer,[1]; octanol/water partition,21.82 µM
same,concentration in water layer,[1]; octanol/water partition,18.18 µM
same,intertwined structure of Aβ42 fibrils (TEM),Aβ42 fibrils,disrupted
